# Like-named read-outs stand apart in the source and are kept apart here.
# Experiments:
# Test in all cases: Ras GTP binding domain inhibition assay (Cy3-GTP/Cy5-GTP competition)
# [1] = target: T1, KRas G12D mutant (Homo sapiens, UniProt P01116, G12D); conditions: 20 μM
# T1 construct: fused on or other part: His tag, used for capture on nickel-coated plates
# In short: (§1)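 First, His-tagged protein is coated on nickel wells overnight at 4 °C. Next, compound (20 μM single point or serial dilution) is added for 3 h at room temperature, with or without Sos exchange factor in the last hour. Finally, 100 nM labelled GTP binds for 45 min and retained signal is measured.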
# [2] = tested on: KRas G12C mutant; design: species or system human; conditions: 20 μM; for KRas G12C mutant + SOS: % inh.: with SOS (Table 7A); for KRas G12C mutant: % inh.: without SOS (Table 7A)
# In short: as §1
# [3] = tested on: KRas Q61H mutant; design: species or system human; conditions: 20 μM; for KRas Q61H mutant + SOS: % inh.: with SOS (Table 7A); for KRas Q61H mutant: % inh.: without SOS (Table 7A)
# In short: as §1
# [4] = tested on: KRas wild type; design: species or system human; conditions: 20 μM; for KRas wild type + SOS: % inh.: with SOS (Table 7A); for KRas wild type % inh.: without SOS (Table 7A)
# In short: as §1
# [5] = with SOS (Table 7A), read-out: KRas G12D mutant + SOS: % inh.
# [6] = without SOS (Table 7A), read-out: KRas G12D mutant: % inh.
Structure (SMILES),"inhibition at 20 µM [1, 5]","inhibition at 20 µM [1, 6]",KRas G12C mutant + SOS: % inh. [2],KRas G12C mutant: % inh. [2],KRas Q61H mutant + SOS: % inh. [3],KRas Q61H mutant: % inh. [3],KRas wild type + SOS: % inh. [4],KRas wild type % inh. [4]
COc1cccc(Cn2ccnc2-c2nc(O)c3scc(-c4ccc(OCC(C)C)nc4)c3n2)c1 [drawing 900],51 to 75%,51 to 75%,B (26-50% inhibition),C (51-75% inhibition),C (51-75% inhibition),C (51-75% inhibition),B (26-50% inhibition),C (51-75% inhibition)
CO[C@H]1CC[C@@H](Nc2nc(-c3nccn3C)nc(C(=O)N3CCc4c(O)cccc4C3)c2C)C1 [drawing 901],26 to 50%,26 to 50%,A (1-25% inhibition),B (26-50% inhibition),B (26-50% inhibition),B (26-50% inhibition),A (1-25% inhibition),B (26-50% inhibition)
CO[C@H]1C[C@@H](Nc2nc(-c3ccccn3)nc3sccc23)C1 [drawing 902],51 to 75%,51 to 75%,C (51-75% inhibition),C (51-75% inhibition),C (51-75% inhibition),D (76-100% inhibition),C (51-75% inhibition),C (51-75% inhibition)
CO[C@H]1C[C@@H](Nc2nc(-c3nccn3C)nc3sccc23)C1 [drawing 903],76 to 100%,76 to 100%,D (76-100% inhibition),D (76-100% inhibition),D (76-100% inhibition),D (76-100% inhibition),D (76-100% inhibition),C (51-75% inhibition)
Cn1ccc(-c2sc3nc(-c4nccn4C)nc(O)c3c2-c2ccccc2)n1 [drawing 904],26 to 50%,26 to 50%,B (26-50% inhibition),B (26-50% inhibition),B (26-50% inhibition),C (51-75% inhibition),A (1-25% inhibition),A (1-25% inhibition)
CO[C@H]1C[C@H](Nc2nc(-c3nccn3C)nc3sc(-c4ccn(C)n4)c(-c4ccccc4)c23)C1 [drawing 906],51 to 75%,26 to 50%,D (76-100% inhibition),C (51-75% inhibition),D (76-100% inhibition),C (51-75% inhibition),D (76-100% inhibition),C (51-75% inhibition)
CN(C)CCOCCNc1nc(-c2nccn2C)nc2sc(-c3ccn(C)n3)c(-c3ccccc3)c12 [drawing 907],51 to 75%,26 to 50%,C (51-75% inhibition),C (51-75% inhibition),D (76-100% inhibition),C (51-75% inhibition),C (51-75% inhibition),C (51-75% inhibition)
Cn1ccc(-c2sc3nc(-c4nccn4C)nc(N[C@H]4C[C@@H](O)C4)c3c2-c2ccccc2)n1 [drawing 908],0%,0%,A (1-25% inhibition),A (1-25% inhibition),0 (0% inhibition),A (1-25% inhibition),0 (0% inhibition),A (1-25% inhibition)
